The target of experiment [1] is T1, FPRL1 in HUVECs (Homo sapiens, UniProt P25090).
T1 construct: endogenous in cells; host or cells: HUVECs
T1 sequence (P25090 1-351): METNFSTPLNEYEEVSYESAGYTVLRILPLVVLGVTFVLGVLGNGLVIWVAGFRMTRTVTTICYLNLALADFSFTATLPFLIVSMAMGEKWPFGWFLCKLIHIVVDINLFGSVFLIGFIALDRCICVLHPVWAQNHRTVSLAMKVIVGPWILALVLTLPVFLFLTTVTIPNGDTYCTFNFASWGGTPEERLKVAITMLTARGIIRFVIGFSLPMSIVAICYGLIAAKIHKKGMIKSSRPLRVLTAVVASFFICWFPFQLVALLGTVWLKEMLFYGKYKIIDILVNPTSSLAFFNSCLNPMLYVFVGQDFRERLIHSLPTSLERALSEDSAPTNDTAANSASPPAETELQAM
Put plainly: Flow cytometry binding of biotinylated linker polypeptide in HUVECs. Here is the method: To evaluate the degree of binding of linker polypeptide corresponding to the link region of human CTGF, linker polypeptide was labeled using a EZ-Link Micro Sulfo-NHS-LC-Biotinylation kit (Pierce Chemical Co., Rockford, Ill., USA) according to the manufacturer's instruction. The linker polypeptide was cultured at room temperature for 1 hour in PBS with 9 mM sulfo-NHS-LC-biotin (Pierce Chemical Co., Rockford, Ill., USA). During biotinylation, vector/RBL cells, FPR/RBL cells, FPRL1/RBL cells, or HUVECs were treated with trypsin, and collected, and then, treated with rabbit serum at room temperature for 30 minutes. After culturing the biotinylated linker polypeptide in the ice for 30 minutes, the cells were shortly washed with ice-cold PBS, cultured with antihuman fluoroscein-5-isothiocyanate (FITC)-conjugated streptavidin (Pierce Chemical Co.), and then, washed with ice-cold PBS, and fixed with 1% formaldehyde solution. And then, they were analyzed using FACS Caliber system (BD Biosciences, San Jose, Calif.) with CellQuest and WinMDI 2.9 software according to previously known method (He, R., Sang, H. & Ye, R. D. Serum amyloid A induces IL-8 secretion through a G protein-coupled receptor, FPRL1/LXA4R. Blood 101, 1572-1581, 2003).
It was examined whether the CTGF linker polypeptide binds to FPRL1 in HUVECs as described in the <Experiment method 7>, and the results are shown in FIG. 13. […]

The subject of experiment [2] is HUVECs. Put plainly: HUVEC proliferation assay ([3H]-thymidine). The experiment is classed as cell-based, human. The procedure: For proliferation assay, HUVECs were plate cultured in a gelatin-coated 24-well culture dish at 2×10^4 cells/well and allowed to adhere overnight. 4 hours after serum was depleted, the cells were treated with various mitogen (CTGF linker polypeptide, CTGF) for 48 hours. [^3H]-thymidine (1 μCi, Amersham International) was added to each well 6 hours before final culture. The inserted [^3H]-thymidine was extracted in 0.2 M NaOH and 0.1% SDS solution at 37° C. for 1 hour. Radioactivity was measured using liquid scintillation counter (Beckmann Instruments), which was repeated three times, and the result was indicated by mean±standard deviation per minute.
First, 20 ng/ml of VEGF-A was administered to HUVECs, the degree of cell proliferation, cell migration, or tube formation was confirmed by the <Experiment method 9>, and the results are shown in FIGS. 22 to 24. At this time, FPRL1 antagonist WRW4 was additionally added.

Experiment [3] relates to HUVECs. The experiment in a line: ERK phosphorylation in HUVECs (immunoblot). The format is cell-based, human. Here is the method: Vector/RBL cells, FPR/RBL cells, FPRL1/RBL cells, and HUVECs were cultured to confluence, and serum-starved. The stimulated cells (1×10^5 cells) were washed with PBS twice, dissolved in 1 ml of sample buffer (50 mM Tris-HCl, 100 mM NaCl, 0.1% SDS, 1% Nonidet P-40, 50 mM NaF, 1 mM Na3VO4, 1 μg/ml aprotinin, 1 μg/ml pepstatin, and 1 μg/ml leupeptin), heated at 95° C. for 30 seconds, separated with SDS-PAGE, and then, transferred to a nitrocellulose film. Immunoblot was conducted using anti-phospho-ERK (extracellular signal regulated kinase)1/2 (Thr^202/Tyr^204)(Cell Signaling Technology, Beverly, Mass., USA), anti-ERK1/2 (Cell Signaling Technology, Beverly, Mass., USA), anti-CTGF (Abcam, Cambridge, Mass., USA), anti-Actin (Sigma, St. Louis, Mo., USA), or anti-Flag (Sigma, St. Louis, Mo., USA) antibody, and then, the film was visualized with a chemiluminescence substrate (Amersham Pharmacia).
Meanwhile, HUVECs were treated with the CTGF linker polypeptide or rhCTGF at various concentrations for 5 minutes, cell lysate was obtained, and then, immuboblot was conducted with anti-phospho ERK1/2 antibody, and the results are shown in FIG. 14.
In general terms: In western blotting, separated proteins are transferred to a membrane and probed.

Experiment [4] relates to CAM (chorioallantoic membrane). The experiment in a line: In vivo CAM (chorioallantoic membrane) angiogenesis analysis. Here is the method: In vivo CAM analysis was conducted according to a previously known method (Lee, M.-S. et al. Angiogenic Activity of Pyruvic Acid in in Vivo and in Vitro Angiogenesis Models. Cancer Res 61, 3290-3293, 2001).
Fertilized eggs were cultured in an egg breeder set to fixed moisture at 37° C. 3 days after the culture, to take off expressed CAM from the shell, about 2 ml of egg albumin was taken out with 18-gague subcutaneous needle. After additionally culturing for 6 days, thermanox coverslips (Nunc) containing the sample was dried in the air, and applied to the CAM surface to test the activity of angiogenesis by linker polypeptide or rhCTGF. After 3 days, 1-2 ml of 10% (w/v) Intralipose was injected into chorioallantois, and observed with microscope.
And, it was confirmed by the <Experiment method 10> that in case HUVECs are treated with FPRL1 antagonist (10 ug/CAM) in vivo, angiogenesis activity of VEGF-A (25 ng/CAM) is inhibited, and the results are shown in FIG. 28.

No end group written: not given here.

For the substance “EWVCDEPKDQTVVGPALAAYRLEDTFGPDPTMIRANCLV (EWVCDEPKDQTVVGPALAAYRLEDTFGPDPTMIRANCLV-NH2; cysteine pairing not given here) [CTGF linker polypeptide]”, the “binding of linker polypeptide in HUVECs (flow cytometry shift)” value in experiment [1] (10 nM, 30 minutes, compared to vehicle) is “average value shifts right”. Further, the “proliferation of HUVECs” value in experiment [2] (48 hours, [3H]-thymidine) is reported as “induces proliferation of HUVECs in a concentration-dependent manner, the degree is not statistically significant”. Moreover, the “ERK phosphorylation in HUVECs” value in experiment [3] (various concentrations, 5 minutes) is recorded as “ERK phosphorylation is effectively induced”. In experiment [4] (sample on coverslip on CAM, 3 days), the “angiogenesis in vivo (CAM)” value was “very strongly induces angiogenesis also in vivo in a concentration-dependent manner”.

As for WRWWWW (FPRL1 antagonist) [WRW4], in experiment [1] (WRW4 10 uM with 10 nM CTGF linker polypeptide), the “effect of antagonist on linker polypeptide binding in HUVECs” value is recorded as “the shift is not observed”. Also, the “effect of antagonist on HUVEC proliferation by VEGF-A” value in experiment [2] (VEGF-A 20 ng/ml plus WRW4) is on record as “did not exhibit statistically significant inhibition of HUVECs proliferation by VEGF-A”. Besides, in experiment [3] (WRW4 10 uM), the “effect of antagonist on ERK phosphorylation in HUVECs” value was “ERK phosphorylation is inhibited”. In experiment [4] (FPRL1 antagonist 10 ug/CAM, VEGF-A 25 ng/CAM), the “effect of antagonist on CAM angiogenesis induced by VEGF-A” value is reported as “strongly inhibits angiogenesis induced by VEGF-A”. The “effect of antagonist on CAM blood vessel formation induced by CTGF linker polypeptide” value in experiment [4] (WRW4 10 uM) is reported as “the blood vessel formation is not induced”.

The values above are taken from US8859496B2, “Pharmaceutical composition using connective-tissue growth factor” (Postech Academy-Industry Foundation, priority 2010, dated 2014).
